The target of assay [1] is JAK1 (Homo sapiens (Human), UniProt P23458). Description: JAK Caliper Enzyme Assay at 1 mM ATP (JAK1). It counts as biochemical. As to conditions: Caliper assay at 1 mM ATP.
Assay [2] addresses TYK2 (Homo sapiens (Human), UniProt P29597). Briefly: JAK Caliper Enzyme Assay at 1 mM ATP (TYK2). Type of assay: biochemical. The note with it: Caliper assay at 1 mM ATP.
Assay [3] relates to rhIL-2 stimulated STAT5 phosphorylation in isolated human T cells. Description: Human T Cell Assay: Inhibition of pSTAT5. Type of assay: cell-based. As to the method: Human T Cell Assay: Inhibition of pSTAT5
An assay measuring the efficacy of JAK inhibitors on the functional response of recombinant human interleukin-2 (rhIL-2) stimulated STAT5 phosphorylation in isolated human T cells.
Human whole blood from individual donors was collected from the phlebotomy unit on-site. Peripheral venous blood (30-60 mL) from healthy volunteers of either sex was used as the source of T cells. T cell isolation from venous whole blood is routinely performed in a class II microbiological safety cabinet. Each sample was collected into between 3 and 6 10 mL Sodium Heparin Vacutainer tubes (BD #367874). The blood was poured into sterile 50 mL conicals (Corning #430828) and incubated with the T cell Rosette Sep Cocktail (Stemcell Technologies #15061) at 50 μL/mL antibody/blood ratio for 20 min. with shaking at room temperature. The blood/antibody mixture was then diluted 1:2 with PBS (Pfizer media prep)/2% FBS (Sigma #F4135) and 30 mL of the mixture was layered onto 15 mL Ficoll-Hypaque (GE Healthcare #17-1440-03) in 50 mL conical tubes. The tubes were then centrifuged at 1200×g for 20 min. at room temperature with no brake. Following centrifugation the T cells formed a buffy coat between the Ficoll-Hypaque and plasma layers. The plasma above the buffy coats was removed to within 5 mm of the buffy coat using a sterile Pasteur pipette. The buffy coats were then collected into fresh sterile 50 mL conical tubes containing 25 mL PBS/2% FBS (2 buffy coats per 50 mL conical). PBS/2% FBS was added to the buffy coat cells such that the final volume in the tube was 50 mL. The tubes were then centrifuged at 200×g for 15 min. at room temperature. The supernatant was discarded and the pellet re-suspended in 10-20 mL of DMEM (Pfizer media prep) Assay media/0.2% BSA (Miltenyi #130-091-376). A differential cell count was performed using a haemacytometer and cells were diluted to 1.1×10^6 T cells/ml in DMEM/0.2% BSA media. Compounds (10 mM-0.3 μM) were diluted with Hanks Balanced Salt Solution (HBSS) (Sigma #H6648) at 1:100 dilution. Immediately following cell isolation and compound dilution, 90 μl/well of T cells (˜1×10^6/ml) in assay medium (DMEM+0.2% BSA) was added to the VWR Deep well V bottom plate (#3906-520-300). 10 μl/well of compound (final concentration range of 10 μM-0.3 nM with 0.1% DMSO) or 0.1% DMSO in HBSS as controls was added to the appropriate wells. Plates were incubated for 1 hour at 37° C., 5% CO2 incubator. 10 μl of 3.3 μg/mL rhIL-2 (R&D Systems #202-IL) was added to the cells (300 ng/ml final assay concentration). Wells containing T cells, medium with 0.1% DMSO and no rhIL-2 were used as background controls. […]
(§1) Data were collected and transformed into percent inhibition and calculated using the following formula: […]

Assay [4] deals with rhIFNγ stimulated STAT-3 phosphorylation in the A549 human epithelial cell line. Description: A549 Cell Assay: Inhibition of pSTAT3. Type of assay: cell-based. As to conditions: A549 cells. As to the method: A549 Cell Assay: Inhibition of pSTAT3
An assay measuring the efficacy of JAK inhibitors on the functional response of recombinant human interferon γ (rhIFNγ) stimulated STAT-3 phosphorylation in the A549 human epithelial cell line.
A549 cells (ATCC #CCL-185), were plated at 30,000 cells/well in 96 well flat bottomed tissue culture plates (BD#353072) in 200 μL of growth medium (DMEM, Pfizer media prep, with 10% Fetal Bovine Serum, Sigma #F4135, 2 mM L-Glutamine, Pfizer media prep, 100 U/mL penicillin, Pfizer media prep, and 200 μg/ml streptomycin, Pfizer media prep), and cultured at 37° C., 5% CO2 incubator for 18 hours. Growth medium was removed by vacuum aspiration (V&P Scientific #vp187 bp-60), and 90 μL of pre-warmed assay medium (DMEM with 0.2% BSA, Miltenyi #130-091-376) was added to each well and incubated for 15 minutes at 37° C. 10 μL of vehicle control or test compound (final concentration range of 0.3 nM to 10 μM with 0.1% DMSO) was added to the cells. Plates were incubated at 37° C. for 1 hour. After compound incubation, 10 μL of 220 ng/mL recombinant human IFNγ (R&D Systems #285-IF, final rhIFNγ concentration of 20 ng/mL) was added to the cells and plates were incubated for 30 minutes at 37° C. Wells containing A549 cells, medium with 0.1% DMSO and no rhIFNγ were used as background controls. After rhIFNγ stimulation, media was aspirated from each well and 35 μL/well of iced-cold MSD lysis buffer containing protease and phosphatase inhibitors from Phospho-STAT3 Tyr705 assay kit (Meso-Scale Discovery #K150DID) was added to each well. Plates were incubated at 4° C. with shaking for 30 minutes. Cell lysates were assayed following the MSD Phospho-STAT3 Tyr705 assay kit protocol to detect pSTAT3.
as §1

Assay [5] has as its target JAK3 (Homo sapiens (Human), UniProt P52333). Description: JAK Caliper Enzyme Assay at 1 mM ATP (JAK3). It counts as biochemical. The note with it: Caliper assay at 1 mM ATP.
For assay [6], the target named is JAK2 (Homo sapiens (Human), UniProt O60674). Briefly: JAK Caliper Enzyme Assay at 1 mM ATP (JAK2). The note with it: Caliper assay at 1 mM ATP. It counts as biochemical.

Counter-ions that a name gives are not always drawn. Like-named read-outs stand apart in the source and are kept apart here.

JAK3, sequence (P52333 whole entry, species assumed): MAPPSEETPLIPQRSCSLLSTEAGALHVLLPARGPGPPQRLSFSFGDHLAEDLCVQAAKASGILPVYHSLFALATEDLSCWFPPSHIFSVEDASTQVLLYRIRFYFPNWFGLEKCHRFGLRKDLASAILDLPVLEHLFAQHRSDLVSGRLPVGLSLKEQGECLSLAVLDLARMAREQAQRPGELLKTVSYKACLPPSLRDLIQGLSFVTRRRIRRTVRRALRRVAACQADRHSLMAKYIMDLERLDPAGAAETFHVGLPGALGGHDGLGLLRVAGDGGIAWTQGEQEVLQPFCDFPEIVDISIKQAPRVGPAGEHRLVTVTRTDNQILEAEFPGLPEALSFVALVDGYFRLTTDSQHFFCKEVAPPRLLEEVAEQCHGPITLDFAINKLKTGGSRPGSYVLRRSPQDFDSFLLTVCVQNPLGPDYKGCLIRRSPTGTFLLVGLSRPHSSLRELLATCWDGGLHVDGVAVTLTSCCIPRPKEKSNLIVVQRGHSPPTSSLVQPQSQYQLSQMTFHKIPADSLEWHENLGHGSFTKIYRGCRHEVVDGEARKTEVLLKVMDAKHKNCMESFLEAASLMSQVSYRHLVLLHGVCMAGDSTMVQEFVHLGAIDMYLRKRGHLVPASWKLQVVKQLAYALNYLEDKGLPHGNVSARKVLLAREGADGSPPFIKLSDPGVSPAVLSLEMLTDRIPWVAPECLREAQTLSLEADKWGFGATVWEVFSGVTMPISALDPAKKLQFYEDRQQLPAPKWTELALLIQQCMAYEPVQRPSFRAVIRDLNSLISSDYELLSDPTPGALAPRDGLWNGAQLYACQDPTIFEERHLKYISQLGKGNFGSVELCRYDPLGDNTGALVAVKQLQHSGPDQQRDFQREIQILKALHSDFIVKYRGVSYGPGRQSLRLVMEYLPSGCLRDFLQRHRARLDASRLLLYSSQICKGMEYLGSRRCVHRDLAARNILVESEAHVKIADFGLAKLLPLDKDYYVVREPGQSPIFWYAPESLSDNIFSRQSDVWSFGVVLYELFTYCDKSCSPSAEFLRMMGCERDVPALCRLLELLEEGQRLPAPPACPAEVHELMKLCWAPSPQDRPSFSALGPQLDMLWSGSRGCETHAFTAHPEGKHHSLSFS
JAK1, sequence (P23458 whole entry, species assumed): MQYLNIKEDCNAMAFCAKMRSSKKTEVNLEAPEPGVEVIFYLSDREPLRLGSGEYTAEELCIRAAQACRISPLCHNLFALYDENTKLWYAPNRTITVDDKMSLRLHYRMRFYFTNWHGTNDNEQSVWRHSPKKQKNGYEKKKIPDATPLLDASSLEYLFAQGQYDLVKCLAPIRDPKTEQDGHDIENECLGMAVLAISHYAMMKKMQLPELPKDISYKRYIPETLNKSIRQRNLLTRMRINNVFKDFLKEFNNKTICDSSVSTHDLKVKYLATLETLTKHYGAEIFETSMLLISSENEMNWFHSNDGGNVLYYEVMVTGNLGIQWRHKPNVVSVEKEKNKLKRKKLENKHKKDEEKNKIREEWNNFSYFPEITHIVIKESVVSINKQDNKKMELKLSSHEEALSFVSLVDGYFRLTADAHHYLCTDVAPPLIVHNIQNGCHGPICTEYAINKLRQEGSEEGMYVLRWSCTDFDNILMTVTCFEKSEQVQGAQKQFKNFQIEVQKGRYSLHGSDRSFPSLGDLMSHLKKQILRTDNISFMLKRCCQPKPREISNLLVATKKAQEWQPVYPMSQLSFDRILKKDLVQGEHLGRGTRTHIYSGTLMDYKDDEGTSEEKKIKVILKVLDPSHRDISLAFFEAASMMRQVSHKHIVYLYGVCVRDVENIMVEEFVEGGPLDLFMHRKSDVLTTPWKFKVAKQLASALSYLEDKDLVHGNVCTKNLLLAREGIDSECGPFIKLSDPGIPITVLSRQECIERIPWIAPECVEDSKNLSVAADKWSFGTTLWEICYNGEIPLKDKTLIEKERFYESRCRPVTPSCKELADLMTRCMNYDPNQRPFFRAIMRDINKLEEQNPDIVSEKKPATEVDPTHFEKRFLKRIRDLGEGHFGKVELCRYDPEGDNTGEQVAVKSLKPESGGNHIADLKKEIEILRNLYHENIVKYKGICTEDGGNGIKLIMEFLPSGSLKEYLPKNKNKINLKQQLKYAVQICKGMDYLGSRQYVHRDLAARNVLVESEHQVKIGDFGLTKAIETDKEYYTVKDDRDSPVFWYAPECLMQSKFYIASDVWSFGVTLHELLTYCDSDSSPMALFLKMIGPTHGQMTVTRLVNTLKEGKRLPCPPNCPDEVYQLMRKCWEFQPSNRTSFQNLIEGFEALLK
JAK2, sequence (O60674 whole entry, species assumed): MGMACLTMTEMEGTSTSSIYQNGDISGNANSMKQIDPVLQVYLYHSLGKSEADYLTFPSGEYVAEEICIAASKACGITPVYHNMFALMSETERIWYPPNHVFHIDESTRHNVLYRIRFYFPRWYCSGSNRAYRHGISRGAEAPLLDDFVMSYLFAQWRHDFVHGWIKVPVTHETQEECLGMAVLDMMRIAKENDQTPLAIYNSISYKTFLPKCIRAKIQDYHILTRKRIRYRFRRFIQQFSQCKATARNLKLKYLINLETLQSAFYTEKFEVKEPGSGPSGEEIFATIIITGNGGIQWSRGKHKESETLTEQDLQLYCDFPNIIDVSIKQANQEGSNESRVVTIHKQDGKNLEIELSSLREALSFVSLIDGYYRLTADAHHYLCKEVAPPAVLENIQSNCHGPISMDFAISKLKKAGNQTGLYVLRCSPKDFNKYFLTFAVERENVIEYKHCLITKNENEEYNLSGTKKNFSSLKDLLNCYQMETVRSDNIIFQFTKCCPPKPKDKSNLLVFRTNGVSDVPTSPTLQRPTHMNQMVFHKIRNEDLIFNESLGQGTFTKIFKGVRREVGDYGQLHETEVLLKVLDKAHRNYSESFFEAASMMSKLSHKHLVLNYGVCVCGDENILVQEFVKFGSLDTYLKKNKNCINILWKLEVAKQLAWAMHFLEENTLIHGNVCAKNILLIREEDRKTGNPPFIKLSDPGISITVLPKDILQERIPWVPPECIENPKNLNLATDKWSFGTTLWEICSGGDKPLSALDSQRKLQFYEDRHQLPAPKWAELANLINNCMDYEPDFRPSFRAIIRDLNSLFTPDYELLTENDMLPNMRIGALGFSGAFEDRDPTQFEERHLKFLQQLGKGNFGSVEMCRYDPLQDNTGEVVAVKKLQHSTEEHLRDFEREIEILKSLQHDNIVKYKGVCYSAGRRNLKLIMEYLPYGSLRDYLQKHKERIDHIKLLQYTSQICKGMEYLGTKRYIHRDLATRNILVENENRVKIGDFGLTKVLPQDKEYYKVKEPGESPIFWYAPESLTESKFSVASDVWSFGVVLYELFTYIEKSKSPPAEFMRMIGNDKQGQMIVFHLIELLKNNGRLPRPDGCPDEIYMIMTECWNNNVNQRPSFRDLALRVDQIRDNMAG
TYK2, sequence (P29597 whole entry, species assumed): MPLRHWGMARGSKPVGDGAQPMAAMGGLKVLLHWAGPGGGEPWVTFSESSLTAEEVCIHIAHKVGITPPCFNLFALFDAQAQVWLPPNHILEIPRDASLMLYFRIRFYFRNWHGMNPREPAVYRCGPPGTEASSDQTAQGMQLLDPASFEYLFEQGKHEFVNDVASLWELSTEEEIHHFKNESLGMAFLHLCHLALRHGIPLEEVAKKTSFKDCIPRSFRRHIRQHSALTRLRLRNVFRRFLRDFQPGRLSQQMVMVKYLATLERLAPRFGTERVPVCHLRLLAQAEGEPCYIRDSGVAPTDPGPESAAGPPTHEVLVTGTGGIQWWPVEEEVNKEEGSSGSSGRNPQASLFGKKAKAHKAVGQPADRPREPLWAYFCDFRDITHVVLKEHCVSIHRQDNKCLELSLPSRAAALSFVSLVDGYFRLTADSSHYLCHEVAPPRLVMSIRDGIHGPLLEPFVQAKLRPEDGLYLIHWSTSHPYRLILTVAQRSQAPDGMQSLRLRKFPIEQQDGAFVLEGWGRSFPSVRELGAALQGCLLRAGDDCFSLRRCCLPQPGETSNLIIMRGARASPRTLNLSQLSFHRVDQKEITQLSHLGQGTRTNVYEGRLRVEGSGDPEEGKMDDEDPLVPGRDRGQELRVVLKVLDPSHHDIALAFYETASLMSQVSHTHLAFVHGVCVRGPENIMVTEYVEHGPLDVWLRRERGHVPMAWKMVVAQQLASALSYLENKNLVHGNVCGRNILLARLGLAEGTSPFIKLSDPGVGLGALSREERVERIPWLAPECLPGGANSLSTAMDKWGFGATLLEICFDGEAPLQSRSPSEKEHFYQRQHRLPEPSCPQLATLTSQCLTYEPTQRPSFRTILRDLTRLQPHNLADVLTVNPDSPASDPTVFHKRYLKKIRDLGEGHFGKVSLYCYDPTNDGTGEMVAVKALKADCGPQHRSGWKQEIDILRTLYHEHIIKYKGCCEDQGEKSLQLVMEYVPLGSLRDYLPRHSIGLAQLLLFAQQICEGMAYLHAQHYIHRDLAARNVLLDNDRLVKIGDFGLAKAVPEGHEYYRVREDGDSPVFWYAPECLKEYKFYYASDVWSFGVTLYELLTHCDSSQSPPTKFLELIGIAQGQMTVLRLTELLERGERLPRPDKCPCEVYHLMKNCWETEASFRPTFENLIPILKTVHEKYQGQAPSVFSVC

The term IC50 denotes the midpoint of a concentration-inhibition curve. A higher IC50 goes with a need for much substance. Consider `Cc1ccc(-c2nnc(-c3n[nH]c4cc(-c5cc(F)c(O)cc5CC(F)(F)F)nc(NCc5ccccc5N(C)S(C)(=O)=O)c34)[nH]2)cn1` [Example 166, N-{2-[({6-[5-fFuoro-4-hydroxy-2-(2,2,2-trifluoroethyl)phenyl]-3-[5-(6-methylpyridin-3-yl)-4H-1,2,4-triazol-3-yl]-1H-pyrazolo[4,3-c]pyridin-4-yl}amino)methyl]phenyl}-N-methylmethanesulfonamide], for which the IC50 in assay [1] was determined as 20.9 nM; in assay [2] it was 126 nM; in assay [3], 591 nM; in assay [4], 697 nM; in assay [5] it was 322 nM; in assay [6], 97.4 nM.
With `CNC(=O)c1n[nH]c2cc(-c3cc(F)c(O)cc3CC(F)(F)F)nc(NCc3ccccc3N(C)S(C)(=O)=O)c12` [Example 20, 6-[5-fluoro-4-hydroxy-2-(2,2,2-trifluoroethyl)phenyl]-N-methyl-4-({2-[methyl(methylsulfon-yl)amino]benzyl}ami-no)-1H-pyrazolo[4,3-c]pyridine-3-carboxamide], the IC50 in assay [3] turned out to be 31.9 nM; in assay [4], 18.8 nM.
Consider `CNC(=O)c1n[nH]c2cc(-c3cc(F)c(O)cc3CC(F)(F)F)nc(NCc3ccccc3N(C)S(=O)(=O)N(C)C)c12` [Example 57], for which the IC50 in assay [1] came to 21.1 nM; in assay [2] it was 149 nM; in assay [4], 60.4 nM; in assay [5], 409 nM; in assay [6], 93.4 nM.
In the case of `Cc1nnc(-c2n[nH]c3cc(-c4cc(F)c(O)cc4CC(F)(F)F)nc(NCc4ccccc4N(C)S(C)(=O)=O)c23)[nH]1` [Example 164, N-{2-[({6-[5-Fluoro-4-hydroxy-2-(2,2,2-trifluoroethyl)phenyl]-3-(5-methyl-4H-1,2,4-triazol-3-yl)-1H-pyrazolo[4,3-c]pyridin-4-yl}amino)methyl]phenyl}-N-methylmethanesulfonamide], the IC50 in assay [3] (T-cell) came to 3900 nM; in assay [4] (Homo sapiens) it was 3020 nM.
As to `CCc1cc(O)c(F)cc1-c1nc(NCc2ccccc2N(C)S(C)(=O)=O)c2cn[nH]c2n1` [Example 155, N-[2-({[6-(2-Ethyl-5-fluoro-4-hydroxyphenyl)-1H-pyrazolo[3,4-d]pyrimidin-4-yl]amino}methyl)phenyl]-N-methylmethanesulfonamide hydrochloride], the IC50 came out at 1.2 nM in assay [1]; 61 nM in assay [2]; 30.1 nM in assay [4] (Homo sapiens); 15.5 nM in assay [5]; 5 nM in assay [6].
As to `CN(C)CCNC(=O)N1CCc2[nH]c(-c3n[nH]c4nc(-c5cc(F)c(O)cc5CC(F)(F)F)nc(NCc5cc(O)ccc5N(C)S(C)(=O)=O)c34)nc2C1` [Example 171, N-[2-(Dimethylamino)ethyl]-2-{6-[5-fluoro-4-hydroxy-2-(2,2,2-trifluoroethyl)phenyl]-4-({5-hydroxy-2-[methyl(methylsulfonyl)amino]benzyl}amino)-1H-pyrazolo[3,4-d]pyrimidin-3-yl}-1,4,6,7-tetrahydro-5H-imidazo[4,5-c]pyridine-5-carboxamide], the values for the IC50 in assay [3] (T-cell) and in assay [4] (Homo sapiens) were 1090 nM and 1580 nM, respectively.
With `CNC(=O)c1n[nH]c2nc(-c3cc(F)c(O)cc3CC(F)(F)F)nc(NCc3ccccc3N(C)S(C)(=O)=O)c12` [Example 94, 6-(5-Fluoro-4-hydroxy-2-(2,2,2-trifluoroethyl)phenyl)-N-methyl-4-((2-(N-methylmethylsulfonamido)benzyl)amino)-1H-pyrazolo[3,4-d]pyrimidine-3-carboxamide], the IC50 in assay [1] was determined as 5.4 nM; in assay [2], 503 nM; in assay [4] (Homo sapiens), 126 nM; in assay [5], 71.2 nM; in assay [6], 27.7 nM.

For the origin of these results see patent US9518052B2, “Pyrazolopyridines and pyrazolopyrimidines” (Pfizer Inc., priority 2014, dated 2016).
